Assay type in all cases: functional
In test [1] the test system is SK-MEL-2. Description: Cytotoxicity against human SK-MEL-2 cells assessed as cell growth at 0.01 uM after 48 hrs by sulforhodamine B assay relative to control. The settings on record: SK-MEL-2, 48 h, read-out: Activity.
Test [2] concerns SK-MEL-2. Kind of test: Cytotoxicity against human SK-MEL-2 cells assessed as cell growth at 100 uM after 48 hrs by sulforhodamine B assay relative to control. The settings on record: SK-MEL-2, 48 h, read-out: Activity. Background: In SRB staining, fixed cells bind dye roughly in proportion to their protein.
The test system of test [3] is SK-MEL-2. Description: Cytotoxicity against human SK-MEL-2 cells assessed as cell growth at 0.1 uM after 48 hrs by sulforhodamine B assay relative to control. The settings on record: SK-MEL-2, 48 h, read-out: Activity.
Test [4] deals with LOX IMVI. Description: Cytotoxicity against human LOXIMVI cells assessed as cell growth at 10 uM after 48 hrs by sulforhodamine B assay relative to control. The settings on record: read-out: Activity.
Test [5] deals with LOX IMVI. Kind of test: Cytotoxicity against human LOXIMVI cells assessed as cell growth at 0.01 uM after 48 hrs by sulforhodamine B assay relative to control. The settings on record: read-out: Activity.
Test [6] deals with LOX IMVI. Description: Cytotoxicity against human LOXIMVI cells assessed as cell growth at 100 uM after 48 hrs by sulforhodamine B assay relative to control. The settings on record: read-out: Activity.
The subject of test [7] is LOX IMVI. Description: Cytotoxicity against human LOXIMVI cells assessed as cell growth at 0.1 uM after 48 hrs by sulforhodamine B assay relative to control. The settings on record: read-out: Activity.
The test system of test [8] is CAKI-1. Kind of test: Cytotoxicity against human Caki1 cells assessed as cell growth at 0.01 uM after 48 hrs by sulforhodamine B assay relative to control. The settings on record: CAKI-1, 48 h, read-out: Activity.
Test [9] relates to SK-MEL-2. Description: Cytotoxicity against human SK-MEL-2 cells assessed as cell growth at 10 uM after 48 hrs by sulforhodamine B assay relative to control. The settings on record: SK-MEL-2, 48 h, read-out: Activity.
The subject of test [10] is SK-MEL-2. Description: Cytotoxicity against human SK-MEL-2 cells assessed as cell growth at 1 uM after 48 hrs by sulforhodamine B assay relative to control. The settings on record: SK-MEL-2, 48 h, read-out: Activity.
Test [11] concerns CAKI-1. Description: Cytotoxicity against human Caki1 cells assessed as growth inhibition after 48 hrs by sulforhodamine B assay. The settings on record: CAKI-1, 48 h.
In test [12] the test system is CAKI-1. Kind of test: Cytotoxicity against human Caki1 cells assessed as cell growth at 10 uM after 48 hrs by sulforhodamine B assay relative to control. The settings on record: CAKI-1, 48 h, read-out: Activity.
For test [13], the system named is LOX IMVI. Kind of test: Cytotoxicity against human LOXIMVI cells assessed as cell growth at 1 uM after 48 hrs by sulforhodamine B assay relative to control. The settings on record: read-out: Activity.
The subject of test [14] is CAKI-1. Kind of test: Cytotoxicity against human Caki1 cells assessed as cell growth at 1 uM after 48 hrs by sulforhodamine B assay relative to control. The settings on record: CAKI-1, 48 h, read-out: Activity.
Test [15] relates to CAKI-1. Description: Cytotoxicity against human Caki1 cells assessed as cell growth at 100 uM after 48 hrs by sulforhodamine B assay relative to control. The settings on record: CAKI-1, 48 h, read-out: Activity.
For a further test, the system named is SK-OV-3. Kind of test: Cytotoxicity against human SKOV3 cells assessed as cell growth at 100 uM after 48 hrs by sulforhodamine B assay relative to control. The settings on record: SK-OV-3, 48 h, read-out: Activity.
For test [16], the system named is CAKI-1. Description: Cytotoxicity against human Caki1 cells assessed as cell growth at 0.1 uM after 48 hrs by sulforhodamine B assay relative to control. The settings on record: CAKI-1, 48 h, read-out: Activity.
Test [17] relates to SNB-75. Description: Cytotoxicity against human SNB75 cells assessed as growth inhibition after 48 hrs by sulforhodamine B assay. The settings on record: SNB-75, 48 h.
Test [18] relates to SF-295. Kind of test: Cytotoxicity against human SF295 cells assessed as cell growth at 10 uM after 48 hrs by sulforhodamine B assay relative to control. The settings on record: SF-295, 48 h, read-out: Activity.
Test [19] relates to SF-295. Kind of test: Cytotoxicity against human SF295 cells assessed as growth inhibition after 48 hrs by sulforhodamine B assay. The settings on record: SF-295, 48 h.
Test [20] relates to SNB-75. Description: Cytotoxicity against human SNB75 cells assessed as cell growth at 10 uM after 48 hrs by sulforhodamine B assay relative to control. The settings on record: SNB-75, 48 h, read-out: Activity.
Test [21] relates to SF-295. Kind of test: Cytotoxicity against human SF295 cells assessed as cell growth at 1 uM after 48 hrs by sulforhodamine B assay relative to control. The settings on record: SF-295, 48 h, read-out: Activity.
The subject of test [22] is SNB-75. Kind of test: Cytotoxicity against human SNB75 cells assessed as cell growth at 100 uM after 48 hrs by sulforhodamine B assay relative to control. The settings on record: SNB-75, 48 h, read-out: Activity.
Test [23] has as its system SNB-75. Description: Cytotoxicity against human SNB75 cells assessed as cell growth at 0.1 uM after 48 hrs by sulforhodamine B assay relative to control. The settings on record: SNB-75, 48 h, read-out: Activity.
For test [24], the system named is SF-295. Kind of test: Cytotoxicity against human SF295 cells assessed as cell growth at 0.01 uM after 48 hrs by sulforhodamine B assay relative to control. The settings on record: SF-295, 48 h, read-out: Activity.
Test [25] relates to SNB-75. Description: Cytotoxicity against human SNB75 cells assessed as cell growth at 0.01 uM after 48 hrs by sulforhodamine B assay relative to control. The settings on record: SNB-75, 48 h, read-out: Activity.
Test [26] deals with SNB-75. Description: Cytotoxicity against human SNB75 cells assessed as cell growth at 1 uM after 48 hrs by sulforhodamine B assay relative to control. The settings on record: SNB-75, 48 h, read-out: Activity.
In test [27] the test system is SF-295. Description: Cytotoxicity against human SF295 cells assessed as cell growth at 100 uM after 48 hrs by sulforhodamine B assay relative to control. The settings on record: SF-295, 48 h, read-out: Activity.
In test [28] the test system is SF-295. Description: Cytotoxicity against human SF295 cells assessed as cell growth at 0.1 uM after 48 hrs by sulforhodamine B assay relative to control. The settings on record: SF-295, 48 h, read-out: Activity.

Each structure is given as a SMILES string.

The LC50 is the concentration that kills 50% of the test population. The TGI is the concentration giving total growth inhibition. For `COc1cc(-c2cc(/C=C/C(=O)c3ccc4c(c3)OCO4)[nH]n2)cc(OC)c1OC`, the growth at 0.01 µM with SK-MEL-2 [1] was found to be 90%; in the test with LOX IMVI [5], 93%; with CAKI-1 [8] it was 96%. The growth at 100 µM in the test on SK-MEL-2 [2] is -60%; in the test on LOX IMVI [6], -54%; in the test on CAKI-1 [15] it was 27%; in the test with SK-OV-3 it was -47%. Further, the figures for the growth at 0.1 µM in the test with SK-MEL-2 [3], in the test with LOX IMVI [7] and in the test with CAKI-1 [16] were 93%, 93% and 96%, respectively. The growth at 10 µM with LOX IMVI [4] was -67%; in the test with SK-MEL-2 [9], 51%; with CAKI-1 [12], 35%. The growth at 1 µM in the test with SK-MEL-2 [10] turned out to be 101%; in the test on LOX IMVI [13], 91%; in the test with CAKI-1 [14], 92%. Also, the LC50 in the test on CAKI-1 [11] is more than 100 µM. Further, in the test on CAKI-1 [11], the total growth inhibition concentration (TGI) is more than 100 µM.

As usually defined, the GI50 is the concentration giving 50% growth inhibition. Take `COc1ccc(-c2cc(/C=C/C(=O)c3ccc(N)cc3)[nH]n2)cc1`: the values for the GI50 with SNB-75 [17], in the test on SF-295 [19] and with CAKI-1 [11] were 2.25 µM, 3.09 µM and 1.32 µM, respectively. Also, the LC50 (concentration killing 50% of cells) with SNB-75 [17] came to 35.3 µM. Moreover, the total growth inhibition concentration (TGI) was found to be 11.4 µM with SNB-75 [17], 13.1 µM with SF-295 [19] and 11.1 µM in the test on CAKI-1 [11]. Moreover, the figures for the growth at 10 µM with SF-295 [18], in the test with SNB-75 [20] and with CAKI-1 [12] were 10%, 6% and 3%, respectively. For the same compound, the LC50 in the test with SF-295 [19] amounted to 49.6 µM; with CAKI-1 [11], 64.3 µM. The growth at 1 µM in the test on SF-295 [21] is 88%; with SNB-75 [26] it was 74%; with CAKI-1 [14], 56%. For the same compound, the growth at 100 µM was -96% with SNB-75 [22], -76% in the test with SF-295 [27], -63% in the test on CAKI-1 [15] and -68% with SK-OV-3. Besides, the figures for the growth at 0.1 µM in the test with SNB-75 [23], in the test with SF-295 [28] and in the test on CAKI-1 [16] were 88%, 95% and 97%, respectively. Moreover, the growth at 0.01 µM was 93% with SF-295 [24], 95% in the test with CAKI-1 [8] and 85% with SNB-75 [25].

With `COc1cc2c(cc1OC)C(=O)/C(=C/c1cc(-c3ccc4c(c3)OCO4)n[nH]1)C2`, the values for the GI50 in the test with SNB-75 [17], with SF-295 [19] and with CAKI-1 [11] were 1.65 µM, 1.64 µM and 1.5 µM, respectively. Moreover, the LC50 (concentration killing 50% of cells) in the test on SNB-75 [17] was 5.51 µM. The TGI in the test with SNB-75 [17] was found to be 3.02 µM; in the test with SF-295 [19] it was 3.26 µM; with CAKI-1 [11], 3 µM. Also, the figures for the growth at 10 µM in the test on SF-295 [18], in the test on SNB-75 [20] and with CAKI-1 [12] were -81%, -100% and -87%, respectively. In addition, the LC50 is 6.5 µM with SF-295 [19] and 6 µM in the test with CAKI-1 [11]. Further, the figures for the growth at 1 µM with SF-295 [21], in the test with SNB-75 [26] and in the test with CAKI-1 [14] were 86%, 92% and 79%, respectively. Moreover, the growth at 100 µM in the test on SNB-75 [22] was -96%; in the test on SF-295 [27], -93%; with CAKI-1 [15], -81%; in the test on SK-OV-3, -97%. Besides, the results for the growth at 0.1 µM in the test on SNB-75 [23], in the test with SF-295 [28] and with CAKI-1 [16] were 94%, 95% and 97%, respectively. For the same compound, the growth at 0.01 µM amounted to 95% in the test on SF-295 [24], 98% with CAKI-1 [8] and 85% in the test with SNB-75 [25].

Source of the values: ChEMBL document CHEMBL4138123, “Design, synthesis and biological evaluation of novel pyrazolochalcones as potential modulators of PI3K/Akt/mTOR pathway and inducers of apoptosis in breast cancer cells” (Eur J Med Chem, 2017).
